Values after ≈ are worked out from the molar mass of the structure shown. “Also recorded” adds a separate entry of the source. Bridge positions count the residues as written; N and C are the ends. Peptide text beside a SMILES is read from it.
Key:
[1] = target: T1, trypsin (Bos taurus, UniProt P00760); experiment: Trypsin inhibition assay; type: biochemical
T1 construct: gene PRSS1
T1 sequence (P00760 24-246): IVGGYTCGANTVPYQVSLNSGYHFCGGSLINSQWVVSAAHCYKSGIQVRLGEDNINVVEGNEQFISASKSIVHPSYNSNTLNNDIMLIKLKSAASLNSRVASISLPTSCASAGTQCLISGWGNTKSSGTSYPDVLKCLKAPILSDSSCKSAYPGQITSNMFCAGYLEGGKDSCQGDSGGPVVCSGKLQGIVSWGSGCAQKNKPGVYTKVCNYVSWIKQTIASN
Procedure: (§1) The trypsin, chymotrypsin inhibition tests were performed as described previously. 10 µL tryptase (1 mg/mL, Calbiochem, UK) was added to the wells of a micro-titer plate containing 180 µL substrate (Boc-Phe-Ser-Arg-NHMec, obtained from Bachem, UK) (50 µM) and 20 µL synthetic replicates (0.1–100 µM) in a tryptase buffer, pH7.6, containing 0.05 M Tris, 0.15 M NaCl, and 0.2% (w/v) polyethylene glycol 6000 (final volume 210 µL).
The inhibition curves of the trypsin/chymotrypsin inhibition assay and tryptase inhibition assay were formed as outlined before.
(§2) The progress curves for the hydrolysis of the fluorogenic substrate were used to estimate an initial rate (Vi) to generate the Morrison plots. All of the progress curves and corresponding Morrison plots in the presence of each peptide of different concentrations are shown in Figure S4.

[2] = target: T2, tryptase (Homo sapiens, UniProt Q15661); experiment: Tryptase inhibition assay; type: biochemical; conditions: substrate Boc-Phe-Ser-Arg-NHMec 50 µM, peptide 0.1-100 µM, tryptase buffer pH 7.6, Morrison plot; average of three independent experiments
T2 construct: purchased Calbiochem, UK
Procedure: as §1
(§3) The rate of hydrolysis of the substrate was monitored by measuring the rate of increase of fluorescence due to the release of 7–amino–4–methylcoumarin (AMC) at 460 nm (excitation 360 nm) in a FLUOstar OPTIMA multi-well plate reader. The inhibition curves of the trypsin/chymotrypsin inhibition assay and tryptase inhibition assay were formed as outlined before.
as §2

[3] = target: chymotrypsin (Bos taurus, UniProt P00766); experiment: Chymotrypsin inhibition assay; type: biochemical; conditions: fluorogenic substrate, AMC release (ex 360/em 460 nm), Morrison plot; average of three independent experiments
Procedure: as §1, §3
as §2, with “PPF-BBI and its analogues were tested for inhibitory activity against trypsin, chymotrypsin and tryptase, respectively. The” for “The”

[4] = test system: C. albicans (NCYC 1467); type: cell-based
Procedure: (§4) The MIC and MBC of the synthetic peptides were determined as previously described, using S. aureus (NCTC 10788), E. coli (NCTC 10418) and C. albicans (NCYC 1467), together with two species of resistant micro-organisms, methicillin-resistant S. aureus (MRSA) (ATCC 12493) and P. aeruginosa (ATCC 27853).

[5] = test system: E. coli (NCTC 10418); type: cell-based
Procedure: as §4

[6] = test system: P. aeruginosa (ATCC 27853); type: cell-based
Procedure: as §4

[7] = test system: S. aureus (NCTC 10788); type: cell-based
Procedure: as §4

[8] = test system: methicillin-resistant S. aureus (MRSA) (ATCC 12493); type: cell-based
Procedure: as §4

[9] = test system: horse erythrocytes; experiment: Haemolysis test; type: cell-based; conditions: 2% suspension of horse erythrocytes, 512 to 1 µM peptide, 4 h; 2% Triton X-100 = 100% haemolysis
Procedure: The haemolytic activity of each peptide was measured by incubating a range of final peptide concentrations from 512 to 1 µM in a two-fold dilution in a 2% suspension of horse erythrocytes, as described in a previous study.
Figure 4 (a) The cell viability of the cancer cell lines H460, H157, H23, H838, HT-29, PC-3, U251MG and HMEC-1 at 4 mM 5-FU (stripe bar), 100 µM and 10 µM PPF-BBI, F^8-PPF-BBI, K^16-PPF-BBI and Tat-loop. The control represents the cell viability without any treatments. The statistical significance of difference was analyzed by a one-way ANOVA (* p < 0.05, **** p < 0.0001). (b) The haemolysis rates of PPF-BBI, F^8-PPF-BBI, K^16-PPF-BBI and Tat-loop on erythrocytes after being incubated for 4 h. The incubation of erythrocytes with 2% (v/v) Triton X-100 was designated as a positive control (100% haemolysis).

T2 sequence (Q15661 31-275): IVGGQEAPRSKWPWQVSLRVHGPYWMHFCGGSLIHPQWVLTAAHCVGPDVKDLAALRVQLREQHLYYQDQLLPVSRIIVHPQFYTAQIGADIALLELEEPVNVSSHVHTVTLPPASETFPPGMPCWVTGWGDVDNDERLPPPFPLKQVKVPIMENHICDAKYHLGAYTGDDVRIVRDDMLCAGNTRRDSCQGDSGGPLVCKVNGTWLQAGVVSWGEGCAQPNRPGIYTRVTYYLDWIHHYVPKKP

Row | Structure (SMILES) | Ki (µM) of Trypsin ([1]; fluorogenic substrate, AMC release (ex 360/em 460 nm), Morrison plot, average of three independent experiments) | Ki (µM) of Tryptase [2] | Ki [3] [µM] | MBC [4] [µM] | MIC [4] [µM] | MBC [5] [µM] | MIC [5] [µM] | MBC [6] [µM] | MIC [6] [µM] | MBC [7] [µM] | MIC [7] [µM] | MBC [8] [µM] | MIC [8] [µM] | Ki [1] [nM] | Ki [2] [µM] | Ki (µM) of Chymotrypsin [3] | Haemolytic activity [9]
1 | CC[C@H](C)[C@@H]1NC(=O)[C@H](CO)NC(=O)[C@H](Cc2ccccc2)NC(=O)[C@H]([C@@H](C)O)NC(=O)[C@H](Cc2c[nH]c3ccccc23)NC(=O)[C@@H](NC(=O)CNC(=O)[C@H](CCCNC(=N)N)NC(=O)[C@H](CC(C)C)NC(=O)[C@H](C)N)CSSC[C@@H](C(=O)N2CCC[C@H]2C(N)=O)NC(=O)[C@@H]2CCCN2C(=O)[C@H](CCCCN)NC(=O)[C@@H]2CCCN2C(=O)[C@@H]2CCCN2C1=O [F^8-PPF-BBI] (H-ALRGCWTFSIPPKPCP-NH2; disulfide 5-15) | N.I.* | N.I.* | 0.85 | >512 | >512 | >512 | >512 | >512 | >512 | >512 | >512 | >512 | >512 |  |  |  | 
2 | CC[C@H](C)[C@@H]1NC(=O)[C@H](CO)NC(=O)[C@H](CCCCN)NC(=O)[C@H]([C@@H](C)O)NC(=O)[C@H](Cc2c[nH]c3ccccc23)NC(=O)[C@@H](NC(=O)CNC(=O)[C@H](CCCNC(=N)N)NC(=O)[C@H](CC(C)C)NC(=O)[C@H](C)N)CSSC[C@@H](C(=O)N[C@@H](CCCCN)C(N)=O)NC(=O)[C@@H]2CCCN2C(=O)[C@H](CCCCN)NC(=O)[C@@H]2CCCN2C(=O)[C@@H]2CCCN2C1=O [K^16-PPF-BBI] (H-ALRGCWTKSIPPKPCK-NH2; disulfide 5-15) |  |  |  | 128 (≈ 228 µg/mL) | 128 (≈ 228 µg/mL) | 128 (≈ 228 µg/mL) | 128 (≈ 228 µg/mL) | 512 (≈ 912 µg/mL) | 512 (≈ 912 µg/mL) | 64 (≈ 114 µg/mL) | 64 (≈ 114 µg/mL) | 512 (≈ 912 µg/mL) | 512 (≈ 912 µg/mL) | 112 | 9.67 | N.I.* | 
3 | CC[C@H](C)[C@@H]1NC(=O)[C@H](CO)NC(=O)[C@H](CCCCN)NC(=O)[C@H]([C@@H](C)O)NC(=O)[C@H](Cc2c[nH]c3ccccc23)NC(=O)[C@@H](NC(=O)CNC(=O)[C@H](CCCNC(=N)N)NC(=O)[C@H](CC(C)C)NC(=O)[C@H](C)N)CSSC[C@@H](C(=O)N2CCC[C@H]2C(N)=O)NC(=O)[C@@H]2CCCN2C(=O)[C@H](CCCCN)NC(=O)[C@@H]2CCCN2C(=O)[C@@H]2CCCN2C1=O [PPF-BBI] (H-ALRGCWTKSIPPKPCP-NH2; disulfide 5-15) |  |  |  | 512 (≈ 897 µg/mL) | 512 (≈ 897 µg/mL) | 128 (≈ 224 µg/mL) | 128 (≈ 224 µg/mL) | >512 | >512 | 128 (≈ 224 µg/mL) | 128 (≈ 224 µg/mL) | >512 | >512 | 170 | 30.7 | N.I.* | 
4 | CC[C@H](C)[C@@H]1NC(=O)[C@H](CO)NC(=O)[C@H](CCCCN)NC(=O)[C@H]([C@@H](C)O)NC(=O)[C@H](Cc2c[nH]c3ccccc23)NC(=O)[C@@H](N)CSSC[C@@H](C(=O)O)NC(=O)[C@@H]2CCCN2C(=O)[C@H](CCCCN)NC(=O)[C@@H]2CCCN2C(=O)[C@@H]2CCCN2C1=O [TIL, reference compound] |  | lost their inhibitory activity; also recorded: N.I.* |  | >512 | >512 | >512 | >512 | >512 | >512 | >512 | >512 | >512 | >512 |  |  | N.I.* | 
5 | N=C(N)NCCC[C@H](NC(=O)[C@H](CCCNC(=N)N)NC(=O)[C@H](CCCNC(=N)N)NC(=O)[C@H](CCC(N)=O)NC(=O)[C@H](CCCNC(=N)N)NC(=O)[C@H](CCCNC(=N)N)NC(=O)[C@H](CCCCN)NC(=O)[C@H](CCCCN)NC(=O)[C@@H](N)CCCNC(=N)N)C(=O)O [Tat, reference compound] |  |  |  | >512 | >512 | 256 (≈ 343 µg/mL) | 256 (≈ 343 µg/mL) | >512 | >512 | 512 (≈ 686 µg/mL) | 512 (≈ 686 µg/mL) | >512 | >512 |  |  |  | 
6 | CC[C@H](C)[C@@H]1NC(=O)[C@H](CO)NC(=O)[C@H](CCCCN)NC(=O)[C@H]([C@@H](C)O)NC(=O)[C@H](Cc2c[nH]c3ccccc23)NC(=O)[C@@H](NC(=O)[C@H](CCCNC(=N)N)NC(=O)[C@H](CCCNC(=N)N)NC(=O)[C@H](CCCNC(=N)N)NC(=O)[C@H](CCC(N)=O)NC(=O)[C@H](CCCNC(=N)N)NC(=O)[C@H](CCCNC(=N)N)NC(=O)[C@H](CCCCN)NC(=O)[C@H](CCCCN)NC(=O)[C@@H](N)CCCNC(=N)N)CSSC[C@@H](C(=O)O)NC(=O)[C@@H]2CCCN2C(=O)[C@H](CCCCN)NC(=O)[C@@H]2CCCN2C(=O)[C@@H]2CCCN2C1=O [Tat-loop] (H-RKKRRQRRRCWTKSIPPKPC-OH; disulfide 10-20) |  | lost their inhibitory activity; also recorded: N.I.* |  | 8 (≈ 20.6 µg/mL) | 4 (≈ 10.3 µg/mL) | 128 (≈ 330 µg/mL) | 128 (≈ 330 µg/mL) | 256 (≈ 660 µg/mL) | 256 (≈ 660 µg/mL) | 128 (≈ 330 µg/mL) | 128 (≈ 330 µg/mL) | 512 (≈ 1320 µg/mL) | 256 (≈ 660 µg/mL) | 607 |  | N.I.* | low haemolytic activity

— article PMC6681222, “Discovery and Rational Design of a Novel Bowman-Birk Related Protease Inhibitor” (Biomolecules, 2019)
